Test results: patent publication US20120157396A1, “PYRAZINAMIDE FOR IMMUNOSTIMULATION AND THE TREATMENT OF LEISHMANIASES” (priority 2009, published 2012)
Read-outs that look alike come from different tables or passages of the source.

Key:
[1] = test system: L. major amastigotes; assay: L. major amastigotes within J774 cells, parasite survival; format: cell-based; conditions: for MIC50: Leishmania major
Protocol: To distinguish between leishmaniostatic and leishmanicidal effects, a time course survival curve was generated for J774 cultures infected with L. major.
Amastigotes were generated by infecting J774 murine macrophages. Infections were carried after seeding cells in 8-well Labtek chambers (Thermo Physic Scientific, Rochester N.Y.) at a concentration of 5×10^4 cells/well. To avoid multiplication, cells were incubated with mitomycin C at a concentration of 0.8 μg/ml for 16 h. Infective-stage promastigotes (metacyclics) of L. major were isolated from stationary cultures (4-5 day-old) by Ficoll enrichment, added to macrophage cultures (5 promastigotes: 1 cell) and kept overnight at 37° C. in the presence of 5% CO2 and DMEM with 10% FCS. Sixteen hours later, non-internalized promastigotes were then washed and replaced by culture medium containing the drug. Forty-eight hours later, wells were detached from the slides, stained with Diff-Quick (Dade Behring, Newark, Del.) and counted under light microscope. Parasite burden was determined by observation under light microscopy (1000×) as the number of amastigotes per one hundred J774 cells. Percentage of survival of amastigotes and MIC50 were calculated as above.

[2] = test system: bone marrow-derived dendritic cells; assay: Cytokine and NO production in bone marrow-derived dendritic cells; format: cell-based, C57BL/6 mice; design: unit not given here; conditions: dendritic cell, drug 100 μM
Protocol: Bone marrow cells were obtained and were grown in the presence of the cytokines M-CSF or GM-CSF to induce differentiation of macrophages or dendritic cells, respectively. The study of the immune response of dendritic cells was included because of their importance for the initiation of the immune response against L. major. […] Again, this effect was rescued by the treatment of macrophages with compounds of formula I, namely, either PZA or 5-Cl PZA.
Parasite and cell culture. L. major clone V1 (MHOM/IL/80/Friedlin) promastigotes were grown at 26° C. in medium 199 supplemented with 20% heat-inactivated fetal calf serum (FCS, Gemini, Sacramento), 100 U/ml penicillin, 100 μg/ml streptomycin, 2 mM L-glutamine, 40 mM Hepes, 0.1 mM adenine (in 50 mM Hepes) and […] hemin (in 50% triethanolamine). The macrophage murine cell line J774 (Cat. No. TIB-67TM) was cultured in DMEM (Sigma-Aldrich, St. Louis, Mo.) with 10% FCS, 100 U/ml penicillin, 100 μg/ml streptomycin and 2 mM glutamine (Sigma-Aldrich) at 37° C. under 5% CO2 atmosphere. Culture medium was changed twice per week. Subcultures were performed when monolayers covered 90% of the bottom of culture flasks. For experiments involving macrophages and dendritic cells, bone marrow was obtained from C57BL/6 mouse femurs and grown for 6-8 days in RPMI 1640 supplemented as above in the presence of 10% L929 conditioned medium (to generate macrophages) or 20 ng/ml GM-CSF (to generate dendritic cells).
(§1) J774 cells or bone marrow-derived cells were seeded onto 24-well plates at a concentration of 5×10^5 cells/ml. Twenty-four hours later, PZA was added to the wells at different concentrations in the absence or presence of L. major (1:5 parasite ratio). In some experiments, J774 cells were treated with amphotericin B (0.1, 0.5, or 1 μg/ml). Two control groups were also included in this experiment: a positive control of activation consisting in a group of uninfected cells treated with 100 ng/ml LPS and 10 IU IFN-γ as a positive control of activation, and a negative control of activation, consisting in uninfected, untreated cells. Cell cultures were maintained overnight, and then cultured for an additional 6 h with brefeldin A (10 μg/ml), harvested by scraping and fixed in 2% paraformaldehyde. Prior to staining, cells were incubated with an anti-Fc III/II receptor and 10% normal mouse serum (NMS) in PBS containing 0.1% BSA, 0.01% NaN3. Cells were permeabilized with saponin and stained for the surface markers CD80 (clone 16-10A1), CD86 (clone GL1), MHCI (clone 28-14-8), MHCII (clone M5/114.15.2) and for the cytokines IL-12p40/p70 (clone C17.8) and IL-10 (clone JESS-16E3). Incubations were carried out for 30 min on ice. All antibodies were purchased from BD Biosciences or eBioscience. For each sample, at least 50,000 cells were analyzed. The data were collected and analyzed using CELLQuest software and a FACScalibur flow cytometer (Becton Dickinson, San Jose, Calif.).

[3] = test system: bone marrow-derived dendritic cells; assay: as above; format: cell-based, C57BL/6 mice; design: unit not given here; conditions: dendritic cell, drug 100 μM; remark: listed apart in the source
[4] = test system: bone marrow-derived macrophages; assay: Cytokine and NO production in bone marrow-derived macrophages; format: cell-based, C57BL/6 mice; design: unit not given here; conditions: macrophage, drug 100 μM
[5] = test system: J774 cells; assay: Cytokine (ELISA) and nitric oxide (Griess test) production in J774 cells; format: cell-based, murine; conditions: for production of cytokines (IL-12, TNF-α) and NO release: J774 cells, irrespective of infection (FIG. 14)
Protocol: The ability of J774 cells to produce cytokines in response to infection and/or treatment was also determined. Cells were infected, treated or activated as described above. The amount of the proinflammatory cytokines IL-12 and TNF-α (implicated in Thl response and parasite killing), as well as the repressive cytokine IL-10, was determined by ELISA in the culture supernatants. The level of nitric oxide was also determined in the same supernatants. PZA treatment alone increased cytokine production, especially IL-12 and TNF-α and NO release. […] Finally, to test the specificity of the immune activation by PZA, we determined the effect that amphotericin B treatment had on activation and cytokine expression by J774 cells.
as §1

[6] = test system: splenocytes; assay: Lymphoproliferative response of splenocytes from L. donovani-infected treated mice; format: cell-based, C57BL/6 mice; conditions: PZA-treated mice, dose dependent
Protocol: FIG. 5. PZA increases proliferation in treated splenocytes. Positive proliferation (measured as loss of CFSE staining at day 5) at 3 wk post infection in CFSE-stained splenocytes from C75BL/6 mice infected with L. donovani and treated with drug vehicle (3.8% DMSO, control) or increasing concentrations of PZA (n=3±SD), following in vitro restimulation with 25 μg/ml leishmanial antigen or 2 μg/ml concanavalin A.
VL typically induces T cell anergy toward leishmanial antigens.

[7] = L. major-infected J774, PZA 10 μM
[8] = L. major-infected J774, PZA 100 μM

For `NC(=O)c1cnc(Cl)cn1` [5-Cl PZA, 5-chloro pyrazinamide], the “MIC50 reduced relative to PZA” value ([1]; L. major amastigotes within J774 cells) was 5 fold, the “MIC50 for PZA analogs” value ([1]; L. major amastigotes within J774 cells (Table Ia)) was 2.1 μM and the IL-10 production ([2]; infected with L. major (Lm)) was 342 ± 398. For the same compound, the IL-12 production ([2]; infected with L. major (Lm)) was 2121 ± 945, the IL-10 production ([2]; uninfected) was 265 ± 213 and the IL-12 production ([2]; uninfected) was 1962 ± 765. For the same compound, the NO production ([3]; infected with L. major (Lm)) was 876 ± 172, the TNF-α production ([3]; infected with L. major (Lm)) was 2986 ± 566 and the NO production ([3]; uninfected) was 745 ± 211. It also gave a TNF-α production ([3]; uninfected) of 17684 ± 678, an NO production ([4]; infected with L. major (Lm)) of 1599 ± 812 and a TNF-α production ([4]; infected with L. major (Lm)) of 1928 ± 444. The NO production ([4]; uninfected) was 1145 ± 721, the TNF-α production ([4]; uninfected) was 1598 ± 542 and the “proinflammatory cytokines stimulated relative to PZA” value ([5]; IL-2 production (FIG. 9B), also in Leishmania-infected macrophages) was 2 ×. The “production of cytokines (IL-12, TNF-α) and NO release” value [5] was “increased”.
`NC(=O)c1cnccn1` [PZA, pyrazinamide] was tested, and the “proliferation of splenocytes to leishmanial antigens and concanavalin A” value [6] was “recovered their ability to proliferate”, the “increase in MIC50 of amastigotes versus promastigotes” value ([1]; 48 hours post infection) was 10 fold and the MIC50 ([1]; 48 h, amastigote in J774, 48 h, read-out: MIC50) was 10.2 µg/mL. For the same compound, the MIC50 ([1]; L. major amastigotes within J774 cells (Table Ia), read-out: MIC50 for PZA analogs) was 9.5 µM, the “percentage of survival compared to untreated control” value (“percentage of survival” for short) ([1]; amastigote in J774, PZA 1 μg/ml, 48 h) was 89 ± 12% and the “percentage of survival” value ([1]; amastigote in J774, PZA 12.5 μg/ml, 48 h) was 47 ± 12%. For the same compound, the “percentage of survival” value ([1]; amastigote in J774, PZA 100 μg/ml, 48 h) was 23 ± 10%, the “percentage of survival” value ([1]; amastigote in J774, PZA 1000 μg/ml, 48 h) was 20 ± 15% and the IL-10 production ([2]; infected with L. major (Lm)) was 203 ± 60. It also gave an IL-12 production ([2]; infected with L. major (Lm)) of 1035 ± 785, an IL-10 production ([2]; uninfected) of 185 ± 63 and an IL-12 production ([2]; uninfected) of 956 ± 145. For the same compound, the NO production ([3]; infected with L. major (Lm)) was 699 ± 612, the TNF-α production ([3]; infected with L. major (Lm)) was 1856 ± 125 and the NO production ([3]; uninfected) was 545 ± 221. For the same compound, the TNF-α production ([3]; uninfected) was 1654 ± 546, the NO production ([4]; infected with L. major (Lm)) was 699 ± 112 and the TNF-α production ([4]; infected with L. major (Lm)) was 921 ± 345. For the same compound, the NO production ([4]; uninfected) was 543 ± 221, the TNF-α production ([4]; uninfected) was 758 ± 246 and the “production of cytokines (IL-12, TNF-α) and NO release” value [5] was “increased”. The IL-10 production [5, 7] was 109 ± 39 pg/mL, the IL-12 production [5, 7] was 253 ± 68 pg/mL and the “Nitric Oxide production” value [5, 7] was 289 ± 55 pg/mL. For the same compound, the TNF-α production [5, 7] was 259 ± 163 pg/mL, the IL-10 production [5, 8] was 112 ± 44 pg/mL and the IL-12 production [5, 8] was 299 ± 55 pg/mL. The “Nitric Oxide production” value [5, 8] was 498 ± 74 pg/mL, the TNF-α production [5, 8] was 489 ± 154 pg/mL and the IL-10 production ([5]; uninfected J774, PZA 10 μM) was 112 ± 45 pg/mL. For the same compound, the IL-12 production ([5]; uninfected J774, PZA 10 μM) was 178 ± 38 pg/mL, the “Nitric Oxide production” value ([5]; uninfected J774, PZA 10 μM) was 254 ± 44 pg/mL and the TNF-α production ([5]; uninfected J774, PZA 10 μM) was 245 ± 159 pg/mL. For the same compound, the IL-10 production ([5]; uninfected J774, PZA 100 μM) was 145 ± 56 pg/mL, the IL-12 production ([5]; uninfected J774, PZA 100 μM) was 359 ± 65 pg/mL and the “Nitric Oxide production” value ([5]; uninfected J774, PZA 100 μM) was 476 ± 52 pg/mL. It also gave a TNF-α production ([5]; uninfected J774, PZA 100 μM) of 377 ± 105 pg/mL.
